Source: US20050070595A1, “Trioxane derivatives as antimalaria or anticancer compounds” (priority 2001, published 2005)
Where “and” joins values, the source holds several entries; their conditions need not be identical. Equal entries are not always repeated. Where two headings read alike, the source gives them in different places.

Test system: chloroquine-resistant K1 strain of P. falciparum
Test: 48-h sensitivity assay, [3H]-hypoxanthine incorporation as an assessment of parasite growth
Format: cell-based
Experimental: The antimalarial activity of the new dimers was tested against the chloroquine-resistant K1 strain of P. falciparum. A single uncloned K1, chloroquine resistant strain of P. falciparum from Thailand was used. Parasites were maintained in continuous culture using the method of Trager and Jenson. (J. Parasitol, 1977, 63, […]). Cultures were grown in flasks containing human erythrocytes (2-5%) with parasitemia in the range of 1% to 10% suspended in RPMI 1640 medium supplemented with 25 mM HEPES and 32 mM NaHCO3, and 10% human serum (complete medium). Cultures were gassed with a mixture of 3% O2, 4% CO2 and 93% N2.
Antimalarial activity was assessed with an adaption of the 48-h sensitivity assay of Desjardins et al. (Antimicrob. Agents. Chemother., 1979, 16, 710-718) using [^3H]-hypoxanthine incorporation as an assessment of parasite growth. Stock drug solutions were prepared in 100% dimethylsulphoxide (DMSO) and diluted to the appropriate concentration using complete medium. Assays were performed in sterile 96-well microtitre plates, each plate containing 200 μl of parasite culture (2% parasitemia, 0.5% haematocrit) with or without 10 μl drug dilutions. Each drag was tested in triplicate and parasite growth was compared to control wells (which constituted 100% parasite growth). After 24-h incubation at 37° C., 0.5 μCi hypoxanthine was added to each well. Cultures were incubated for a further 24 h before they were harvested onto filter-mats, dried for 1 h at 55° C. and counted using a Wallac 1450 Microbeta Trilux Liquid scintillation and luminescence counter. IC50 values were calculated by interpolation of the probit transformation of the log dose—response curve.

[1] = mean of the determinations, K1 strain, 48 h, read-out: Mean IC50
[2] = Plasmodium falciparum, K1, 48 h, mean of the determinations, K1 strain, 48 h, read-out: Mean IC50
[3] = single determinations (triplicate), K1 strain, 48 h, read-out: IC50

Molecule: 10β-(2-Hydroxyethyl)-deoxoartemisinin bis-ester (1,2)-dimer [PV30]
- IC50 [1]: 2.6 nM

Molecule: CO[C@H]1O[C@@H]2O[C@@]3(C)CC[C@H]4[C@H](C)CC[C@@H]([C@H]1C)[C@@]24OO3 [Artemether, artemether, reference compound]
- IC50 [2]: 2.8 nM
- IC50 [3]: 2 nM

Molecule: C[C@@H]1CC[C@H]2[C@@H](C)C(=O)O[C@@H]3O[C@@]4(C)CC[C@@H]1[C@]32OO4 [Artemisinin, reference compound]
- IC50 [2]: 12.3 nM
- IC50 (Plasmodium falciparum, K1, 48 h, single determinations (triplicate), K1 strain, 48 h, read-out: IC50): 12.3 nM

Molecule: CCN(CC)CCCC(C)Nc1ccnc2cc(Cl)ccc12 (stereo not shown) [Chloroquine, chloroquine, reference compound]
- IC50 (Plasmodium falciparum, K1, 48 h): 190 nM
- IC50 (Plasmodium falciparum, K1, 48 h, read-out: Mean IC50): 190 nM

Molecule: C[C@H]1[C@@H](CCOC(=O)c2cccc(C(=O)OCC[C@H]3O[C@@H]4O[C@]5(C)CC[C@H]6[C@H](C)CC[C@@H]([C@H]3C)[C@@]46OO5)c2)O[C@@H]2O[C@]3(C)CC[C@H]4[C@H](C)CC[C@@H]1[C@@]24OO3 [PV31, 10β-(2-hydroxyethyl)-deoxoartemisininbis-ester(1,3)-dimer]
- IC50 [1]: 42.2 nM
- IC50 [3]: 39.9 nM and 43.3 nM

Molecule: C[C@H]1[C@@H](CCOC(=O)c2ccc(C(=O)OCC[C@H]3O[C@@H]4O[C@]5(C)CC[C@H]6[C@H](C)CC[C@@H]([C@H]3C)[C@@]46OO5)cc2)O[C@@H]2O[C@]3(C)CC[C@H]4[C@H](C)CC[C@@H]1[C@@]24OO3 [PV32, 10-β-(2-Hydroxyethyl)-deoxoartemisinin bis-ester(1,4)-dimer]
- IC50 [1]: 4.6 nM
- IC50 [3]: 5.5 nM and 5.2 nM and 3 nM

Molecule: C[C@H]1[C@@H](CCOC(=O)CCC(=O)OCC[C@H]2O[C@@H]3O[C@]4(C)CC[C@H]5[C@H](C)CC[C@@H]([C@H]2C)[C@@]35OO4)O[C@@H]2O[C@]3(C)CC[C@H]4[C@H](C)CC[C@@H]1[C@@]24OO3 [PV33]
- IC50 [1]: 1.8 nM

Molecule: CC1CCC2C(C)C(CCOC(=O)CCCC(=O)OCCC3OC4OC5(C)CCC6C(C)CCC(C3C)C46OO5)OC3OC4(C)CCC1C32OO4 (stereo not shown) [PV35]
- IC50 [1]: 2.4 nM
- IC50 [3]: 2.6 nM and 3.1 nM and 1.6 nM

Molecule: CC1CCC2C(C)C(CCOP(=O)(OCCC3OC4OC5(C)CCC6C(C)CCC(C3C)C46OO5)Oc3ccccc3)OC3OC4(C)CCC1C32OO4 (stereo not shown) [PV37]
- IC50 [1]: 0.5 nM

Molecule: C[C@H]1[C@@H](CCOCc2ccc(COCC[C@H]3O[C@@H]4O[C@]5(C)CC[C@H]6[C@H](C)CC[C@@H]([C@H]3C)[C@@]46OO5)cc2)O[C@@H]2O[C@]3(C)CC[C@H]4[C@H](C)CC[C@@H]1[C@@]24OO3 [PV41]
- IC50 [1]: 2.4 nM
- IC50 [3]: 2.6 nM and 3.1 nM and 1.6 nM

Molecule: C[C@H]1[C@@H](CCOCc2cccc(COCC[C@H]3O[C@@H]4O[C@]5(C)CC[C@H]6[C@H](C)CC[C@@H]([C@H]3C)[C@@]46OO5)c2)O[C@@H]2O[C@]3(C)CC[C@H]4[C@H](C)CC[C@@H]1[C@@]24OO3 [PV43]
- IC50 [1]: 2.9 nM

Molecule: C[C@H]1[C@@H](CCOCc2ccccc2COCC[C@H]2O[C@@H]3O[C@]4(C)CC[C@H]5[C@H](C)CC[C@@H]([C@H]2C)[C@@]35OO4)O[C@@H]2O[C@]3(C)CC[C@H]4[C@H](C)CC[C@@H]1[C@@]24OO3 [PV45]
- IC50 [1]: 2.7 nM
